According to publication PMC8539145, “Function and Characterization Analysis of BodoOBP8 from Bradysia odoriphaga (Diptera: Sciaridae) in the Recognition of Plant Volatiles and Sex Pheromones” (Insects, 2021):
“And” between values parts separate entries of the source, which are not always exact repeats. Identical values can stand only once. Like-named read-outs stand apart in the source and are kept apart here.

Target: BodoOBP8 (Bradysia odoriphaga, UniProt A0A2S0X9G3)
Assay: Fluorescence competitive binding assay (1-NPN probe) with recombinant BodoOBP8
Description: For the binding assays, all test ligands (Table S1) were dissolved in methanol, and N-phenyl-1-naphthylamine (1-NPN) was used as a fluorescent probe.

[1] = recombinant BodoOBP8, calculated from IC50 of 1-NPN displacement, read-out: Ki
[2] = recombinant BodoOBP8, displacement of 1-NPN, read-out: IC50
[3] = Ki, recombinant BodoOBP8, calculated from IC50 of 1-NPN displacement
[4] = pH 7.4, Figure 3B, read-out: Ki

Sequence of BodoOBP8 (A0A2S0X9G3 entry or part of it): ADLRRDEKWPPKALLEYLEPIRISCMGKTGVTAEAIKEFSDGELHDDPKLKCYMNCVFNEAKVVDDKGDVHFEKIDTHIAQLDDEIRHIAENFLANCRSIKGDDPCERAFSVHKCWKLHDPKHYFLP

Row | SMILES | Ki [1] | IC50 [2] [µM] | further results
1 | CC12CCC(CC1)C(C)(C)O2 [1,8-Cineole] | > 50 µM | > 50 | 
2 | c1ccc(Nc2cccc3ccccc23)cc1 [1-NPN, N-phenyl-1-naphthylamine, reference compound] |  |  | Kd: 2.21 µM
3 | CCCCC(C)=O [2-Hexanone] |  |  | IC50: > 50 µM; Ki [3]: > 50 µM
4 | C=C(C)[C@H]1CC=C(C)CC1 [(R)-(+)-Limonene] | > 50 µM | > 50 | 
5 | CC(=O)c1ccccc1 [Acetophenone] | > 50 µM | > 50 | 
6 | O=Cc1ccccc1 [Benzaldehyde] |  |  | IC50: > 50 µM; Ki [3]: > 50 µM
7 | CCCCOC(=O)CCC(C)=O [Butyl levulinate] | > 50 µM | > 50 | 
8 | Cc1ccc(C(C)C)cc1O [Carvacrol] |  |  | IC50: > 50 µM; Ki [3]: > 50 µM
9 | CC(C)=CCCC(C)CCO (stereo not drawn) [Citronellol] | > 50 µM | > 50 | 
10 | CCCCCCCCCC=O [Decanal] | > 50 µM | > 50 | 
11 | C=CCSSCC=C [Diallyl disulfide] |  |  | IC50: 10 µM; Ki (Ki, pH 7.4, Figure 3B): 4.04 µM; Ki [3]: 6.73 µM; Ki (recombinant BodoOBP8, calculated from IC50 of 1-NPN displacement): < 10 µM
12 | CCCCCCCCCCCC [Dodecane] | > 50 µM | > 50 | 
13 | CCCCCCCCCCCC=O [Dodecyl aldehyde] | > 50 µM | > 50 | 
14 | CCCCCCC=O [Heptanal] | > 50 µM | > 50 | 
15 | CCCCCCCCCCCCCCCC [Hexadecane] | > 50 µM | > 50 | 
16 | C=CC(C)(O)CCC=C(C)C (stereo not drawn) [Linalool] |  |  | IC50: > 50 µM; Ki [3]: > 50 µM

Row | SMILES | Ki [1] | IC50 [2] [µM] | further results
17 | C=CCSSC [Methyl allyl disulfide] |  | 8 | Ki [4]: 6.73 µM
18 | COC(=O)Cc1ccccc1 [Methyl phenylacetate] |  |  | IC50: > 50 µM; Ki [3]: > 50 µM
19 | COC(=O)c1ccccc1O [Methyl salicylate] |  |  | IC50: > 50 µM; Ki [3]: > 50 µM
20 | CCCCCCCCC=O [Nonanal] | > 50 µM | > 50 | 
21 | CCCCCCCCC [Nonane] | > 50 µM | > 50 | 
22 | C=CC(C)=CCC=C(C)C [Ocimene] | > 50 µM | > 50 | 
23 | CCCCCCCC=O [Octanal] | > 50 µM | > 50 | 
24 | CCCCCCCCCCCCCC [Tetradecane] | > 50 µM | > 50 | 
25 | CCCCC=O [Valeric aldehyde] | > 50 µM | > 50 | 
26 | CC/C=C\CCO [cis-3-Hexen-1-ol] |  |  | IC50: > 50 µM; Ki [3]: > 50 µM
27 | CCCCCCCCCCCCCCCCC [n-Heptadecane] | 4.04 µM and < 10 µM | 6 | Ki [4]: 4.04 µM
28 | CC(=O)/C=C/C1=C(C)CCCC1(C)C [ß-Ionone] | > 50 µM | > 50 | 
29 | C=C1CC/C=C(/C)CC[C@@H]2[C@@H]1CC2(C)C [ß-caryophyllene] | > 50 µM | > 50 | 
30 | C=C1CCC2CC1C2(C)C (stereo not drawn) [ß-pinene] | > 50 µM | > 50 | 
31 | C/C1=C\CC/C(C)=C/CC(C)(C)/C=C/C1 [α-Humulene] | > 50 µM | > 50 | 
32 | c1ccc2[nH]ccc2c1 [(H-11)Indole, Indole] |  |  | IC50: > 50 µM; Ki [3]: > 50 µM
